Experimental data as given in the supplement of paper PMC9663587.

How the values were obtained:
BSJ-03-123 = compound: CC(=O)c1c(C)c2cnc(Nc3ccc(N4CCN(CCOCCOCCOCCNC(=O)COc5cccc6c5C(=O)N(C5CCC(=O)NC5=O)C6=O)CC4)cn3)nc2n(C2CCCC2)c1=O [BSJ-03-123]; experiment: increase in dead-cell fraction, 72 h; higher = more death;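 note: breast cancer cell lines in 384-well plates, stained with Hoechst plus LIVE/DEAD far red dye and imaged, cells above an LDR intensity threshold counted dead, Hoechst-negative corpses included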
[1] = compound: CC(=O)c1c(C)c2cnc(Nc3ccc(N4CCNCC4)cn3)nc2n(C2CCCC2)c1=O; experiment: as above
[2] = compound: CCN1CCN(Cc2ccc(Nc3ncc(F)c(-c4cc(F)c5nc(C)n(C(C)C)c5c4)n3)nc2)CC1; experiment: as above
Neratinib/HKI272 = compound: CCOc1cc2ncc(C#N)c(Nc3ccc(OCc4ccccn4)c(Cl)c3)c2cc1NC(=O)/C=C/CN(C)C [Neratinib/HKI272]; experiment: as above
[3] = compound: CCc1cnn2c(NCc3ccc[n+]([O-])c3)cc(N3CCCC[C@H]3CCO)nc12; experiment: as above
LEE011/Ribociclib = compound: CN(C)C(=O)c1cc2cnc(Nc3ccc(N4CCNCC4)cn3)nc2n1C1CCCC1 [LEE011/Ribociclib]; experiment: as above
THZ1 [4] = compound: T1, CN(C)C/C=C/C(=O)Nc1ccc(C(=O)Nc2cccc(Nc3ncc(Cl)c(-c4c[nH]c5ccccc45)n3)c2)cc1 [THZ1]; experiment: as above
Flavopiridol [5] = compound: T2, CN1CC[C@H](c2c(O)cc(O)c3c(=O)cc(-c4ccccc4Cl)oc23)[C@H](O)C1 [Flavopiridol]; experiment: as above
[6] = compound: CC(=O)c1c(C)c2cnc(Nc3ccc(N4CCNCC4)cn3)nc2n(C2CCCC2)c1=O; experiment: GR value, 72 h; higher = faster growth (1 = untreated, <0 = killing);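 note: breast cancer and non-malignant breast epithelial lines, nine half-log doses, viable cells counted by Hoechst and LIVE/DEAD dye imaging versus time-zero plates and DMSO controls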
THZ531 = compound: CN(C)C/C=C/C(=O)Nc1ccc(C(=O)N2CCC[C@@H](Nc3ncc(Cl)c(-c4c[nH]c5ccccc45)n3)C2)cc1 [THZ531]; experiment: as above
THZ1 [7] = compound: T1, THZ1; experiment: as above
Flavopiridol [8] = compound: T2, Flavopiridol; experiment: as above

## PDX1258
BSJ-03-123; 0.001 µM
  increase in dead-cell fraction: -0.0086
BSJ-03-123; 0.003162 µM
  increase in dead-cell fraction: 0.027
BSJ-03-123; 0.01 µM
  increase in dead-cell fraction: -0.004
BSJ-03-123; 0.03162 µM
  increase in dead-cell fraction: -0.0154
BSJ-03-123; 0.1 µM
  increase in dead-cell fraction: 0.0044
BSJ-03-123; 0.3162 µM
  increase in dead-cell fraction: -0.0026
BSJ-03-123; 1 µM
  increase in dead-cell fraction: -0.001
BSJ-03-123; 3.162 µM
  increase in dead-cell fraction: -0.0102
BSJ-03-123; 10 µM
  increase in dead-cell fraction: 0.284
[1]; 0.0003162 µM
  increase in dead-cell fraction: 0.0009
[1]; 0.001 µM
  increase in dead-cell fraction: -0.0052
[1]; 0.003162 µM
  increase in dead-cell fraction: -0.0004
[1]; 0.01 µM
  increase in dead-cell fraction: 0.0095
[1]; 0.03162 µM
  increase in dead-cell fraction: 0.0043
[1]; 0.1 µM
  increase in dead-cell fraction: 0.0062
[1]; 0.3162 µM
  increase in dead-cell fraction: -0.0028
[1]; 1 µM
  increase in dead-cell fraction: -0.0014
[1]; 3.162 µM
  increase in dead-cell fraction: 0.0061
[2]; 0.001 µM
  increase in dead-cell fraction: 0.0001
[2]; 0.003162 µM
  increase in dead-cell fraction: -0.0098
[2]; 0.01 µM
  increase in dead-cell fraction: -0.0015
[2]; 0.03162 µM
  increase in dead-cell fraction: -0.003
[2]; 0.1 µM
  increase in dead-cell fraction: -0.0037
[2]; 0.3162 µM
  increase in dead-cell fraction: 0.0003
[2]; 1 µM
  increase in dead-cell fraction: 0.0382
[2]; 3.162 µM
  increase in dead-cell fraction: 0.142
[2]; 10 µM
  increase in dead-cell fraction: 0.354
Neratinib/HKI272; 0.0003162 µM
  increase in dead-cell fraction: 0.0046
Neratinib/HKI272; 0.001 µM
  increase in dead-cell fraction: 0.0126
Neratinib/HKI272; 0.003162 µM
  increase in dead-cell fraction: 0.0014
Neratinib/HKI272; 0.01 µM
  increase in dead-cell fraction: -0.0047
Neratinib/HKI272; 0.03162 µM
  increase in dead-cell fraction: 0.0084
Neratinib/HKI272; 0.1 µM
  increase in dead-cell fraction: 0.0159
Neratinib/HKI272; 0.3162 µM
  increase in dead-cell fraction: 0.0244
Neratinib/HKI272; 1 µM
  increase in dead-cell fraction: 0.0372
Neratinib/HKI272; 3.162 µM
  increase in dead-cell fraction: 0.118
[3]; 0.0001 µM
  increase in dead-cell fraction: -0.0003
[3]; 0.0003162 µM
  increase in dead-cell fraction: -0.0056
[3]; 0.001 µM
  increase in dead-cell fraction: -0.0037
[3]; 0.003162 µM
  increase in dead-cell fraction: 0.0067
[3]; 0.01 µM
  increase in dead-cell fraction: 0.0568
[3]; 0.03162 µM
  increase in dead-cell fraction: 0.537
[3]; 0.1 µM
  increase in dead-cell fraction: 0.662
[3]; 0.3162 µM
  increase in dead-cell fraction: 0.643
[3]; 1 µM
  increase in dead-cell fraction: 0.658
LEE011/Ribociclib; 0.001 µM
  increase in dead-cell fraction: -0.0077
LEE011/Ribociclib; 0.003162 µM
  increase in dead-cell fraction: 0.003
LEE011/Ribociclib; 0.01 µM
  increase in dead-cell fraction: -0.0078
LEE011/Ribociclib; 0.03162 µM
  increase in dead-cell fraction: -0.0297
LEE011/Ribociclib; 0.1 µM
  increase in dead-cell fraction: -0.0249
LEE011/Ribociclib; 0.3162 µM
  increase in dead-cell fraction: 0.0184
LEE011/Ribociclib; 1 µM
  increase in dead-cell fraction: -0.0032
LEE011/Ribociclib; 3.162 µM
  increase in dead-cell fraction: 0.0025
LEE011/Ribociclib; 10 µM
  increase in dead-cell fraction: 0.0066
THZ1 [4]; 0.0001 µM
  increase in dead-cell fraction: -0.0269
THZ1 [4]; 0.0003162 µM
  increase in dead-cell fraction: 0.0089
THZ1 [4]; 0.001 µM
  increase in dead-cell fraction: -0.01
THZ1 [4]; 0.003162 µM
  increase in dead-cell fraction: -0.0015
THZ1 [4]; 0.01 µM
  increase in dead-cell fraction: 0.0153
THZ1 [4]; 0.03162 µM
  increase in dead-cell fraction: 0.188
THZ1 [4]; 0.1 µM
  increase in dead-cell fraction: 0.237
THZ1 [4]; 0.3162 µM
  increase in dead-cell fraction: 0.304
THZ1 [4]; 1 µM
  increase in dead-cell fraction: 0.398
Flavopiridol [5]; 0.0001 µM
  increase in dead-cell fraction: 0.0131
Flavopiridol [5]; 0.0003162 µM
  increase in dead-cell fraction: -0.0092
Flavopiridol [5]; 0.001 µM
  increase in dead-cell fraction: -0.0132
Flavopiridol [5]; 0.003162 µM
  increase in dead-cell fraction: -0.0012
Flavopiridol [5]; 0.01 µM
  increase in dead-cell fraction: 0.0042
Flavopiridol [5]; 0.03162 µM
  increase in dead-cell fraction: -0.0156
Flavopiridol [5]; 0.1 µM
  increase in dead-cell fraction: 0.0246
Flavopiridol [5]; 0.3162 µM
  increase in dead-cell fraction: 0.0926
Flavopiridol [5]; 1 µM
  increase in dead-cell fraction: 0.288
[6]; 0.0003162 µM
  GR value: 1.07 GR
[6]; 0.001 µM
  GR value: 1.08 GR
[6]; 0.003162 µM
  GR value: 1.11 GR
[6]; 0.01 µM
  GR value: 1.12 GR
[6]; 0.03162 µM
  GR value: 1.1 GR
[6]; 0.1 µM
  GR value: 1.05 GR
[6]; 0.3162 µM
  GR value: 1.09 GR
[6]; 1 µM
  GR value: 1.09 GR
[6]; 3.162 µM
  GR value: 0.993 GR
THZ531; 0.0001 µM
  GR value: 0.889 GR
THZ531; 0.0003162 µM
  GR value: 1.04 GR
THZ531; 0.001 µM
  GR value: 0.96 GR
THZ531; 0.003162 µM
  GR value: 1.07 GR
THZ531; 0.01 µM
  GR value: 1.07 GR
THZ531; 0.03162 µM
  GR value: 0.765 GR
THZ531; 0.1 µM
  GR value: -0.303 GR
THZ531; 0.3162 µM
  GR value: -0.601 GR
THZ531; 1 µM
  GR value: -0.509 GR
THZ1 [7]; 0.0001 µM
  GR value: 1.11 GR
THZ1 [7]; 0.0003162 µM
  GR value: 1.16 GR
THZ1 [7]; 0.001 µM
  GR value: 1.17 GR
THZ1 [7]; 0.003162 µM
  GR value: 0.923 GR
THZ1 [7]; 0.01 µM
  GR value: 0.918 GR
THZ1 [7]; 0.03162 µM
  GR value: -0.295 GR
THZ1 [7]; 0.1 µM
  GR value: -0.51 GR
THZ1 [7]; 0.3162 µM
  GR value: -0.509 GR
THZ1 [7]; 1 µM
  GR value: -0.665 GR
Flavopiridol [8]; 0.0001 µM
  GR value: 1.03 GR
Flavopiridol [8]; 0.0003162 µM
  GR value: 0.973 GR
Flavopiridol [8]; 0.001 µM
  GR value: 1.02 GR
Flavopiridol [8]; 0.003162 µM
  GR value: 1.07 GR
Flavopiridol [8]; 0.01 µM
  GR value: 1.18 GR
Flavopiridol [8]; 0.03162 µM
  GR value: 0.831 GR
Flavopiridol [8]; 0.1 µM
  GR value: 0.5 GR
Flavopiridol [8]; 0.3162 µM
  GR value: -0.24 GR
Flavopiridol [8]; 1 µM
  GR value: -0.402 GR
